Where two headings read alike, the source gives them in different places.
Tests used:
RKO CRC cells = test: cells; conditions: Homo sapiens
Experimental: (§1) Cell Culture Conditions. The cell lines were obtained from the American Type Culture Collection (ATCC). PANC-1 and Caco-2 cell lines were maintained in DMEM medium (Gibco); HT-29, HCT-116 and RKO cells were maintained in McCoy's 5A medium (Gibco); and DU-145 and H1299 cells were maintained in RPMI 1640 medium (Gibco), supplemented with 10% fetal bovine serum (FBS; Gibco) and 1% antibiotics (10.00 units/mL penicillin and 10.00 mg/mL streptomycin; Gibco). Cells were preserved in tissue culture flasks at 37° C. and 5% CO2. Culture medium was replaced every three days.
(§2) Cell Viability Assay. The effect of each compound on cell viability was tested using the MTT assay (81). Briefly, 9000 cells/well were grown in 96-well plates for 12 h. Then these cells were incubated with either DMSO (control) or nine different concentration between 0.01-50 μM of the test compounds for 24, 48, and 72 h. Three hours before the termination point, 20 μL of MTT were added to measure cellular viability. The resultant formazan crystals were dissolved in 50 μL of DMSO, and absorbance was measured at 570 nm and 630 nm wavelengths. IC50, GI50, TGI and LC50 values were calculated using OriginPro 8.5.1.

CACO-2 CRC cells = test: cells; conditions: for IC50: Homo sapiens
Experimental: as §1, §2

HT-29 (CRC) = test: MTT cell viability assay, HT-29; conditions: Homo sapiens; for viability at 5 µM / viability at 25 µM / viability at 50 µM: read-out: cell viability
Experimental: as §1, §2
(§3) Evaluation of the antiproliferative activities of the novel molecules. […] These four cell lines were treated with each compound at three concentrations (5, 25 and 50 μM) for 48 h.

HCT-116 CRC cells = test: MTT cell viability assay, HCT-116; format: cell-based, human; conditions: Homo sapiens
Experimental: as §1, §2

H1299 (lung carcinoma) = test: MTT cell viability assay, H1299; conditions: Homo sapiens, NCI-H1299, 48 h, read-out: cell viability
Experimental: as §1, §2, §3

[1] = system: PANC-1 (pancreatic carcinoma); test: MTT cell viability assay, Panc-1; conditions: Homo sapiens, PANC-1, 48 h, read-out: cell viability
Experimental: as §1, §2, §3

[2] = system: DU-145 (prostate carcinoma); test: MTT cell viability assay, DU-145; conditions: Homo sapiens, DU-145, 48 h, read-out: cell viability
Experimental: as §1, §2, §3

Row | Compound | IC50 (RKO CRC cells; 24 h) [µM] | IC50 (RKO CRC cells; 48 h) [µM] | IC50 (RKO CRC cells; 72 h) [µM] | IC50 (CACO-2 CRC cells; Caco-2, 24 h) [µM] | IC50 (CACO-2 CRC cells; Caco-2, 48 h) [µM] | IC50 (CACO-2 CRC cells; Caco-2, 72 h) [µM] | IC50 (HT-29 (CRC); HT-29, 24 h) [µM] | IC50 (HT-29 (CRC); HT-29, 48 h) [µM] | IC50 (HT-29 (CRC); HT-29, 72 h) [µM] | viability at 5 µM (H1299 (lung carcinoma)) [%] | viability at 25 µM (H1299 (lung carcinoma)) [%] | viability at 50 µM (H1299 (lung carcinoma)) [%] | viability at 5 µM [1] [%] | viability at 25 µM [1] [%] | viability at 50 µM [1] [%] | viability at 5 µM [2] [%] | viability at 25 µM [2] [%] | viability at 50 µM [2] [%] | viability at 5 µM (HT-29 (CRC); HT-29, 48 h) [%] | viability at 25 µM (HT-29 (CRC); HT-29, 48 h) [%] | further results
1 | CC[Se]C(=O)c1ccccc1OC(C)=O [Compound 1b, 2-((ethylselanyl)carbonyl)phenyl acetate] | > 50 | > 50 | > 50 | > 50 | > 50 | > 50 | > 50 | 4.2 ± 0.4 | 4.2 ± 0.9 |  |  |  |  |  |  |  |  |  |  |  | effect on CACO-2 viability (CACO-2 CRC cells): no effect; IC50 (HCT-116 CRC cells; HCT-116, 24 h, read-out: IC50): > 50 µM; IC50 (HCT-116 CRC cells; HCT-116, 48 h, read-out: IC50): 13.2 ± 2.6 µM; IC50 (HCT-116 CRC cells; HCT-116, 72 h, read-out: IC50): 6.8 ± 4.2 µM
2 | C[Se]C(=O)c1cc(-c2ccc(F)cc2F)ccc1O [Compound 2a, Se-methyl 2′,4′-difluoro-4-hydroxy-[1,1′-biphenyl]-3-carboselenoate] |  |  |  |  |  |  |  |  |  | 96.8 ± 19.8 | 80 ± 10.7 | 79.9 ± 9 | 53.5 ± 9.7 | 38.5 ± 8.1 | 39.1 ± 11.1 | 53.9 ± 14.1 | 40.7 ± 8.3 | 39.5 ± 2.7 | 46.6 ± 11.9 | 23.5 ± 7.2 | viability at 50 µM (HT-29 (CRC); HT-29, 48 h): 28.4 ± 2.7%
3 | O=C(O)c1cc(-c2ccc(F)cc2F)ccc1O [Dfl, diflunisal, reference compound] |  |  |  |  |  |  |  |  |  | 85.2 ± 3.6 | 94.3 ± 3.9 | 88.7 ± 7.8 | 77.9 ± 5.4 | 75.5 ± 6.9 | 68.5 ± 9.3 | 71 ± 6.9 | 71.5 ± 9.1 | 78.9 ± 6.4 | 93.2 ± 5.7 | 82.7 ± 9.8 | viability at 50 µM (HT-29 (CRC); HT-29, 48 h): 74.7 ± 2%
4 | COc1ccc2cc([C@H](C)C(=O)[Se]C)ccc2c1 [Compound 3a, Se-methyl (S)-2-(6-methoxynaphthalen-2-yl)propaneselenoate] |  |  |  |  |  |  |  |  |  | 48.3 ± 5.4 | 42.4 ± 2.7 | 34.3 ± 1.3 | 46.7 ± 9.7 | 34.4 ± 6.3 | 30.5 ± 6 | 56.2 ± 18.4 | 35 ± 16.1 | 31.4 ± 23.6 | 52.2 ± 30.9 | 41.8 ± 26.4 | viability at 50 µM (HT-29 (CRC); HT-29, 48 h): 46.4 ± 24.7%
5 | CC(=O)Oc1ccccc1C(=O)[Se]Cc1ccccc1 [Compound 1c, 2-((benzylselanyl)carbonyl)phenyl acetate] | > 50 | 10.4 ± 0.1 | 5 ± 0.1 | > 50 | > 50 | 11.8 ± 5.9 | > 50 | 4.8 ± 0.2 | 4.8 ± 0.1 |  |  |  |  |  |  |  |  |  |  |  | IC50 (HCT-116 CRC cells; HCT-116, 24 h): > 50 µM; IC50 (HCT-116 CRC cells; HCT-116, 48 h): 8 ± 2.1 µM; IC50 (HCT-116 CRC cells; HCT-116, 72 h): 8.2 ± 2.2 µM
6 | COc1ccc2c(c1)c(CC(=O)[Se]Cc1ccccc1)c(C)n2C(=O)c1ccc(Cl)cc1 [Compound 5c, Se-benzyl 2-(1-(4-chlorobenzoyl)-5-methoxy-2-methyl-1H-indol-3-yl)ethane-selenoate] | > 50 | 26.2 ± 4.6 | 11.5 ± 0.9 | > 50 | > 50 | > 50 | > 50 | 4.2 ± 0.5 | 4 ± 1 |  |  |  |  |  |  |  |  |  |  |  | IC50 (HCT-116 CRC cells; HCT-116, 24 h): > 50 µM; IC50 (HCT-116 CRC cells; HCT-116, 48 h): 14 ± 6.6 µM; IC50 (HCT-116 CRC cells; HCT-116, 72 h): 5.5 ± 1.2 µM
7 | CC[Se]C(=O)Cc1c(C)n(C(=O)c2ccc(Cl)cc2)c2ccc(OC)cc12 [Compound 5b, Se-ethyl 2-(1-(4-chlorobenzoyl)-5-methoxy-2-methyl-1H-indol-3-yl)ethane-selenoate] | > 50 | 30.8 ± 3.5 | 33.3 ± 16.9 | > 50 | > 50 | > 50 | > 50 | 4.9 ± 0.3 | 4.9 ± 0.1 |  |  |  |  |  |  |  |  |  |  |  | effect on CACO-2 viability (CACO-2 CRC cells): no effect; IC50 (HCT-116 CRC cells; HCT-116, 24 h, read-out: IC50): > 50 µM; IC50 (HCT-116 CRC cells; HCT-116, 48 h, read-out: IC50): 6.3 ± 1.6 µM; IC50 (HCT-116 CRC cells; HCT-116, 72 h, read-out: IC50): 8.2 ± 1.7 µM
8 | Cc1cccc(Nc2ccccc2C(=O)O)c1C [Mf, mefenamic acid, reference compound] |  |  |  |  |  |  |  |  |  | 71.4 ± 15.5 | 44.9 ± 1.4 | 39.4 ± 1.3 | 72.4 ± 5.6 | 61.9 ± 10.9 | 65.9 ± 5.1 | 100 | 100 | 100 | 91.9 ± 4.9 | 75.7 ± 4.1 | viability at 50 µM (HT-29 (CRC); HT-29, 48 h): 64.9 ± 4.5%
9 | CC[Se]C(=O)CC1=C(C)/C(=C/c2ccc([S+](C)[O-])cc2)c2ccc(F)cc21 (stereo not drawn) [Compound 6b, Se-ethyl (Z)-2-(5-fluoro-2-methyl-1-(4-(methylsulfinyl)benzylidene)-1H-inden-3-yl)ethaneselenoate] | > 50 | 41.8 ± 13.8 | 12.4 ± 0.5 | > 50 | > 50 | > 50 | 10.9 ± 1.4 | 4.9 ± 0.2 | 5 ± 0.1 |  |  |  |  |  |  |  |  |  |  |  | effect on CACO-2 viability (CACO-2 CRC cells): no effect; IC50 (HCT-116 CRC cells; HCT-116, 24 h, read-out: IC50): > 50 µM; IC50 (HCT-116 CRC cells; HCT-116, 48 h, read-out: IC50): 6.2 ± 0.9 µM; IC50 (HCT-116 CRC cells; HCT-116, 72 h, read-out: IC50): 7.2 ± 1 µM
10 | CC1=C(CC(=O)[Se]Cc2ccccc2)c2cc(F)ccc2/C1=C\c1ccc([S+](C)[O-])cc1 (stereo not drawn) [Compound 6c, Se-benzyl (Z)-2-(5-fluoro-2-methyl-1-(4-(methylsulfinyl)benzylidene)-1H-inden-3-yl)ethaneselenoate] | > 50 | > 50 | 35.8 ± 5.9 | > 50 | 11.4 ± 1.6 | 14.2 ± 3.9 | > 50 | 5.1 ± 0.1 | 5.2 ± 0.2 |  |  |  |  |  |  |  |  |  |  |  | IC50 (HCT-116 CRC cells; HCT-116, 24 h): > 50 µM; IC50 (HCT-116 CRC cells; HCT-116, 48 h): 7.8 ± 1.8 µM; IC50 (HCT-116 CRC cells; HCT-116, 72 h): 7 ± 0.8 µM

From patent US20230219886A1, “NOVEL SELENO-NSAID ANALOGS AND USES THEREOF” (THE PENN STATE RESEARCH FOUNDATION, priority 2020, published 2023)
